Assay results published in patent publication US20230407243A1, “GENETIC PLATFORM TO INVESTIGATE THE FUNCTIONS OF BACTERIAL DRUG EFFLUX PUMPS” (priority 2022, published 2023).
≈ marks a conversion by molar mass, not a printed value. Where “and” joins values, the source holds several entries; their conditions need not be identical. Equal values may be shown once. Read-outs that look alike come from different tables or passages of the source.

What was measured:
Assay type in all cases: cell-based, Escherichia coli
EKO-35 tufA (pCA24N) = assay: MIC of strains harboring ASKA plasmids; conditions: 0.1 mM IPTG
K-12 (empty pCA24N) = assay: MIC of strains harboring ASKA plasmids; conditions: 0.1 mM IPTG
ΔtolC (empty pCA24N) = assay: microbe, parasite or virus in culture; conditions: 0.1 mM IPTG; for MIC: Escherichia coli, ΔtolC empty pCA24N
EKO-35 wcaC (pCA24N) = assay: MIC of strains harboring ASKA plasmids; conditions: 0.1 mM IPTG
[1] = tested on: EKO-35 strains producing different efflux pumps (EKO-35 araC::X); assay: Checkerboard synergy (FICI) of PAβN or NMP with antibiotics; conditions: for Effect / FICI: PAβN + antibiotic; for MICb Alone: antibiotic alone (PAβN checkerboard); for MICb Combined: antibiotic in combination with PAβN; for PABN MICa Alone: PAβN alone, one value per checkerboard
Summary of the method: (§1)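 Inocula prepared from resuspended colonies were exposed to PAβN or NMP combined with antibiotics in MHB II checkerboards. Growth was scored by OD600 to define MICs. FICI then classified the interaction, with values under 0.5 counted as synergistic.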

ΔtolC-Pore = conditions: ΔtolC Pore; for PABN MICa Alone: PAβN alone, one value per checkerboard
Summary of the method: as §1

EKO-35 = conditions: for PABN MICa Alone: PAβN alone, one value per checkerboard
Summary of the method: as §1

ΔtolC = conditions: ΔtolC; for PABN MICa Alone: PAβN alone, one value per checkerboard
Summary of the method: as §1

EKO-35 acrBD408A = conditions: EKO-35 acrBD408A; for PABN MICa Alone: PAβN alone, one value per checkerboard
Summary of the method: as §1

wild-type E. coli K-12 = conditions: K-12
Summary of the method: as §1

[2] = tested on: EKO-35 porinated strain expressing acrD; assay: Checkerboard synergy (FICI), porinated strain
Summary of the method: as §1

[3] = tested on: EKO-35-Pore strains producing other efflux pumps; assay: Checkerboard synergy (FICI), porinated strain; conditions: EKO-35 mdtEF Pore
Summary of the method: as §1

[4] = tested on: EKO-35 porinated strain expressing acrF (AcrEF); assay: Checkerboard synergy (FICI), porinated strain; conditions: EKO-35 acrEF Pore; for PABN MICa Alone: PAβN alone, one value per checkerboard
Summary of the method: as §1

[5] = 4 μg/mL chloramphenicol selection
[6] = antibiotic alone (PAβN checkerboard)
[7] = antibiotic in combination with PAβN
[8] = efflux-deficient strains EKO-35, EKO-35 acrBD408A, ΔtolC
[9] = EKO-35 acrD Pore, PAβN + antibiotic
[10] = PAβN alone, one value per checkerboard

## N#Cc1ccc(-c2c(NC(=O)C(Cl)Cl)oc(-c3cccs3)c2C#N)cc1 [compound 2]
EKO-35 tufA (pCA24N); [5]
  MIC, EKO-35 tufA (pCA24N), Chlor +: >5 μg/mL
EKO-35 tufA (pCA24N); no plasmid selection
  MIC, EKO-35 tufA (pCA24N), Chlor −: >5 μg/mL
K-12 (empty pCA24N); 25 μg/mL chloramphenicol selection
  MIC, K-12 (empty pCA24N), Chlor +: >5 μg/mL
K-12 (empty pCA24N); no plasmid selection
  MIC, K-12 (empty pCA24N), Chlor −: >5 μg/mL
ΔtolC (empty pCA24N); no plasmid selection
  MIC, ΔtolC (empty pCA24N), Chlor −: 1.25 μg/mL
ΔtolC (empty pCA24N); with chloramphenicol plasmid selection
  MIC, ΔtolC (empty pCA24N), Chlor +: 1.25 μg/mL
EKO-35 wcaC (pCA24N); [5]
  MIC, EKO-35 wcaC (pCA24N), Chlor +: >5 μg/mL
EKO-35 wcaC (pCA24N); no plasmid selection
  MIC, EKO-35 wcaC (pCA24N), Chlor −: >5 μg/mL

## CO[C@@H]1[C@@H](OC(N)=O)[C@@H](O)[C@H](Oc2ccc3c(O)c(NC(=O)c4ccc(O)c(CC=C(C)C)c4)c(=O)oc3c2C)OC1(C)C [novobiocin]
K-12 (empty pCA24N); Escherichia coli, K-12 empty pCA24N, Chlor + (25 μg/mL chloramphenicol), read-out: MIC
  MIC: 200 µg/mL
ΔtolC (empty pCA24N); Chlor +
  MIC: 1.56 µg/mL (≈ 2.55 µM)
ΔtolC (empty pCA24N); Chlor −
  MIC: 3.13 µg/mL (≈ 5.11 µM)
[1]; EKO-35 acrB
  Effect: Synergistic
  FICI: 0.156
  MICb Alone: 1024 µg/mL
  MICb Combined: 32 µg/mL
[1]; EKO-35 acrD
  Effect: Synergistic
  FICI: 0.313
  MICb Alone: 512 µg/mL
  MICb Combined: 32 µg/mL
ΔtolC-Pore; PAβN + antibiotic
  Effect: Additive
  FICI: 0.740
ΔtolC-Pore; [6]
  MICb Alone: 0.25 µg/mL
ΔtolC-Pore; [7]
  MICb Combined: 0.06 µg/mL
EKO-35; EKO-35, PAβN + antibiotic
  Effect: Synergistic
  FICI: 0.375
EKO-35; EKO-35, antibiotic alone (PAβN checkerboard)
  MICb Alone: 4 µg/mL
EKO-35; EKO-35, antibiotic in combination with PAβN
  MICb Combined: 1 µg/mL
EKO-35; [8]
  interaction of PAβN in combination with the labelled antibiotic (FICI): synergized
ΔtolC; PAβN + antibiotic
  Effect: Synergistic
  FICI: 0.500
ΔtolC; [6]
  MICb Alone: 2 µg/mL
ΔtolC; [7]
  MICb Combined: 0.5 µg/mL
EKO-35 acrBD408A; PAβN + antibiotic
  Effect: Synergistic
  FICI: 0.375
EKO-35 acrBD408A; [6]
  MICb Alone: 8 µg/mL
EKO-35 acrBD408A; [7]
  MICb Combined: 2 µg/mL
wild-type E. coli K-12; PAβN + antibiotic
  Effect: Synergistic
  FICI: 0.188
wild-type E. coli K-12; [6]
  MICb Alone: 128 µg/mL
wild-type E. coli K-12; [7]
  MICb Combined: 8 µg/mL
[2]; [9]
  Effect: Additive
  FICI: 0.563
[2]; EKO-35 acrD Pore, antibiotic alone (PAβN checkerboard)
  MICb Alone: 16 µg/mL
[2]; EKO-35 acrD Pore, antibiotic in combination with PAβN
  MICb Combined: 1 µg/mL
[2]; acrD expressed in the porinated strain
  interaction of PAβN in combination with the labelled antibiotic (FICI): synergy was lost
EKO-35 wcaC (pCA24N); EKO-35 wcaC, Chlor + (4 μg/mL)
  MIC: 1.56 µg/mL

## phenylalanine-arginine-β-naphthylamide [PAβN]
[1]; EKO35 araC::acrB, with Linezolid
  PABN MICa Combined: 16 µg/mL
[1]; EKO-35 acrB, with Erythromycin
  PABN MICa Combined: 16 µg/mL
[1]; EKO-35 acrB, with Fusidic Acid
  PABN MICa Combined: 32 µg/mL
[1]; EKO-35 acrB, with Novobiocin
  PABN MICa Combined: 32 µg/mL
[1]; EKO-35 acrB, with Oxacillin
  PABN MICa Combined: 16 µg/mL
[1]; EKO-35 acrD
  PABN MICa Alone: 64 µg/mL
[1]; EKO-35 acrD, listed as PABN
  PABN MICa Alone: 128 µg/mL
[1]; EKO-35 acrD, with Fusidic Acid
  PABN MICa Combined: 8 µg/mL
[1]; EKO-35 acrD, with Novobiocin
  PABN MICa Combined: 16 µg/mL
[1]; EKO-35 acrD, with Oxacillin
  PABN MICa Combined: 4 µg/mL
[1]; EKO-35 acrEF, listed as PABN
  PABN MICa Alone: 32 µg/mL and 64 µg/mL
[1]; EKO-35 acrEF, with Ciprofloxacin
  PABN MICa Combined: 16 µg/mL
[1]; EKO-35 acrEF, with Erythromycin
  PABN MICa Combined: 16 µg/mL
[1]; EKO-35 acrEF, with Fusidic Acid
  PABN MICa Combined: 8 µg/mL
[1]; EKO-35 acrEF, with Oxacillin
  PABN MICa Combined: 16 µg/mL
[1]; EKO-35 mdtEF
  PABN MICa Alone: 64 µg/mL
[1]; EKO-35 mdtEF, with Erythromycin
  PABN MICa Combined: 16 µg/mL
[1]; EKO-35 mdtEF, with Fusidic Acid
  PABN MICa Combined: 8 µg/mL
[1]; EKO-35 mexCD
  PABN MICa Alone: 64 µg/mL
[1]; EKO-35 mexCD, with Ciprofloxacin
  PABN MICa Combined: 8 µg/mL
[1]; EKO-35 mexCD, with Erythromycin
  PABN MICa Combined: 8 µg/mL
ΔtolC-Pore
  PABN MICa Alone: 64 µg/mL
ΔtolC-Pore; listed as PABN
  PABN MICa Alone: 128 µg/mL
ΔtolC-Pore; with Ciprofloxacin
  PABN MICa Combined: 64 µg/mL
ΔtolC-Pore; with Erythromycin
  PABN MICa Combined: 16 µg/mL
ΔtolC-Pore; with Fusidic Acid
  PABN MICa Combined: 32 µg/mL
ΔtolC-Pore; with Linezolid
  PABN MICa Combined: 64 µg/mL
ΔtolC-Pore; with Novobiocin
  PABN MICa Combined: 32 µg/mL
ΔtolC-Pore; with Oxacillin
  PABN MICa Combined: 64 µg/mL
EKO-35; EKO-35
  PABN MICa Alone: 64 µg/mL
EKO-35; EKO-35, listed as PABN
  PABN MICa Alone: 128 µg/mL
EKO-35; EKO-35, with Ciprofloxacin
  PABN MICa Combined: 4 µg/mL
EKO-35; EKO-35, with Erythromycin
  PABN MICa Combined: 8 µg/mL
EKO-35; EKO-35, with Fusidic Acid
  PABN MICa Combined: 16 µg/mL
EKO-35; EKO-35, with Linezolid
  PABN MICa Combined: 32 µg/mL
EKO-35; EKO-35, with Novobiocin
  PABN MICa Combined: 8 µg/mL
EKO-35; EKO-35, with Oxacillin
  PABN MICa Combined: 4 µg/mL
EKO-35; [8]
  susceptibility to the efflux pump inhibitor alone, efflux-deficient strains vs wild-type: exhibits antibacterial activity, which is enhanced upon efflux inactivation
ΔtolC
  PABN MICa Alone: 64 µg/mL
ΔtolC; listed as PABN
  PABN MICa Alone: 128 µg/mL
ΔtolC; with Ciprofloxacin
  PABN MICa Combined: 32 µg/mL
ΔtolC; with Erythromycin
  PABN MICa Combined: 8 µg/mL
ΔtolC; with Fusidic Acid
  PABN MICa Combined: 16 µg/mL
ΔtolC; with Linezolid
  PABN MICa Combined: 64 µg/mL
ΔtolC; with Novobiocin
  PABN MICa Combined: 16 µg/mL
ΔtolC; with Oxacillin
  PABN MICa Combined: 8 µg/mL
EKO-35 acrBD408A
  PABN MICa Alone: 64 µg/mL
EKO-35 acrBD408A; listed as PABN
  PABN MICa Alone: 128 µg/mL
EKO-35 acrBD408A; with Ciprofloxacin
  PABN MICa Combined: 8 µg/mL
EKO-35 acrBD408A; with Erythromycin
  PABN MICa Combined: 8 µg/mL
EKO-35 acrBD408A; with Fusidic Acid
  PABN MICa Combined: 8 µg/mL
EKO-35 acrBD408A; with Linezolid
  PABN MICa Combined: 32 µg/mL
EKO-35 acrBD408A; with Novobiocin
  PABN MICa Combined: 8 µg/mL
EKO-35 acrBD408A; with Oxacillin
  PABN MICa Combined: 16 µg/mL
wild-type E. coli K-12; [10]
  PABN MICa Alone: 256 µg/mL
wild-type E. coli K-12; with Ciprofloxacin
  PABN MICa Combined: 64 µg/mL
wild-type E. coli K-12; with Erythromycin
  PABN MICa Combined: 16 µg/mL
wild-type E. coli K-12; with Fusidic Acid
  PABN MICa Combined: 32 µg/mL
wild-type E. coli K-12; with Linezolid
  PABN MICa Combined: 16 µg/mL
wild-type E. coli K-12; with Novobiocin
  PABN MICa Combined: 32 µg/mL
wild-type E. coli K-12; with Oxacillin
  PABN MICa Combined: 32 µg/mL
[2]; EKO-35 acrD Pore, PAβN alone, one value per checkerboard, listed as PABN
  PABN MICa Alone: 32 µg/mL and 64 µg/mL
[2]; EKO-35 acrD Pore, with Fusidic Acid
  PABN MICa Combined: 8 µg/mL
[2]; EKO-35 acrD Pore, with Novobiocin
  PABN MICa Combined: 16 µg/mL
[2]; EKO-35 acrD Pore, with Oxacillin
  PABN MICa Combined: 16 µg/mL
[3]; [10]
  PABN MICa Alone: 64 µg/mL
[3]; with Erythromycin
  PABN MICa Combined: 32 µg/mL
[3]; with Fusidic Acid
  PABN MICa Combined: 8 µg/mL
[4]
  PABN MICa Alone: 64 µg/mL
[4]; listed as PABN
  PABN MICa Alone: 128 µg/mL
[4]; with Ciprofloxacin
  PABN MICa Combined: 16 µg/mL
[4]; with Erythromycin
  PABN MICa Combined: 16 µg/mL
[4]; with Fusidic Acid
  PABN MICa Combined: 8 µg/mL
[4]; with Oxacillin
  PABN MICa Combined: 32 µg/mL
